Test results taken from patent US11286281B2, “Homodetic cyclic peptides targeting alpha-4-beta-7 integrin” (priority 2017, dated 2022).
Numbered stars: 1 amine (or outer) side, 2 acyl side, 3 side chain; on linkers, the order of the positions; unused ones are H or OH. Square brackets hold non-standard residues; d marks the D form. Peptide text beside a SMILES is read from it. X1 = O=C(c1ccc(-c2ccc(N3CCNCC3)cc2)c(CN[*:1])c1)[*:2]

Target: T1, integrin α4β7 (Homo sapiens, UniProt P13612+P26010)
T1 construct: purchased R&D Systems 5397-A3-050
T1 sequence (P13612 34-970 limits assumed): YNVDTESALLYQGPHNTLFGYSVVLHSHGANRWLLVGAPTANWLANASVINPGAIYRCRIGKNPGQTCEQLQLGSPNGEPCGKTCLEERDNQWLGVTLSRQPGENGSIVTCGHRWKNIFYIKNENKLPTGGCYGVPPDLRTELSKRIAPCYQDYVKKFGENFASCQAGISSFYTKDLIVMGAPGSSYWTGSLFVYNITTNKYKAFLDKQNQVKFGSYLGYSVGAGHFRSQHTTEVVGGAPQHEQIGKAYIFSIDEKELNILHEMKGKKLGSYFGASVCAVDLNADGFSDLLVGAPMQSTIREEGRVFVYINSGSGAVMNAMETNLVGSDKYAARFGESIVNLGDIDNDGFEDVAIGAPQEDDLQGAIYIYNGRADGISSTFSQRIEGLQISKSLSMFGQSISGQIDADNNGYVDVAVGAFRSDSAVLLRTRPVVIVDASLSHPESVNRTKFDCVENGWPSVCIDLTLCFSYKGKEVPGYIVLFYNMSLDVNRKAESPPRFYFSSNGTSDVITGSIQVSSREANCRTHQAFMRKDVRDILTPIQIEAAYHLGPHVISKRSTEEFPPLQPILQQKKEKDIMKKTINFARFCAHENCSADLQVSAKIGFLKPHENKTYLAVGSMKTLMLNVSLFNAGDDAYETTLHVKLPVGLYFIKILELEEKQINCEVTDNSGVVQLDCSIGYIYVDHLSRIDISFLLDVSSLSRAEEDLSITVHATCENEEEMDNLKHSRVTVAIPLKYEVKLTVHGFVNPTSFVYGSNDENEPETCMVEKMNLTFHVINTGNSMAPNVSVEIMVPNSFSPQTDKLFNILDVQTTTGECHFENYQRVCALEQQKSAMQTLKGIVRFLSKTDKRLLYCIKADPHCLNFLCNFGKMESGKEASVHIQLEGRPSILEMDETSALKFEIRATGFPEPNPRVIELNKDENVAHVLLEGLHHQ
T1 sequence (P26010 20-723 limits assumed): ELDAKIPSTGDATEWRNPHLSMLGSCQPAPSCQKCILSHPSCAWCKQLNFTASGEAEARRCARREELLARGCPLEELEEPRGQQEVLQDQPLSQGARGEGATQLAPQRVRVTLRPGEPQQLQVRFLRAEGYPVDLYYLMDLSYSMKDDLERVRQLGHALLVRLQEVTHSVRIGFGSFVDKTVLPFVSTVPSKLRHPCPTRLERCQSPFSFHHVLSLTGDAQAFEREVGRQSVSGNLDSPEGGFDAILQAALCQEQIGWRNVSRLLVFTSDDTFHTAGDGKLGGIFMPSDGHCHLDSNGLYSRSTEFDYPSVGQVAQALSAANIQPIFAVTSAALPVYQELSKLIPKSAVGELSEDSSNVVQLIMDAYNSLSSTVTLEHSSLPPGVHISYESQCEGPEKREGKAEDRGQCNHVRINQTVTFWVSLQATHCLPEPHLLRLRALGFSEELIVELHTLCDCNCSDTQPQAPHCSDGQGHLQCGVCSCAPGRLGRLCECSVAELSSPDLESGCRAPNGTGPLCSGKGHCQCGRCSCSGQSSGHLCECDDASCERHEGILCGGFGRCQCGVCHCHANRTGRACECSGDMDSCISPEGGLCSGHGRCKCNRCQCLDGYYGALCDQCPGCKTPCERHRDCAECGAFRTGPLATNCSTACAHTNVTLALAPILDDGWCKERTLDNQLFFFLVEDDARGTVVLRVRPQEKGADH
Assay: Integrin α4β7-MAdCAM-1 ELISA competition assay
Assay type: binding
Conditions: values of the second run
Protocol: Integrin α4β7-MAdCAM-1 ELISA Competition Assay
A 96-well Microlon plate (Greiner, 655001) was coated with 100 μl per well of a solution of 1 μg/ml recombinant integrin α4β7 (R&D Systems, 5397-A3-050) in carbonate buffer (50 mM, pH 9.6). The plate was incubated at 4′C overnight. The solution was removed and 250 μl blocking buffer (50 mM Tris, 150 mM NaCl, 1 mM MnCl2, 1% BSA, 0.05% Tween) was added per well. The plate was then incubated for 1 hour at room temperature. The plate was washed three times with wash buffer (50 mM Tris, 100 mM NaCl, 1 mM MnCl2, 0.05% Tween). To each well, 50 μl of compound diluted in assay buffer was added by transfer from a compound serial dilution plate. 50 μl recombinant MAdCAM-Fc (R&D systems, 6056-MC-050) at a concentration of 0.1 μg/ml in assay buffer (50 mM Tris, 150 mM NaCl, 1 mM MnCl2, 0.1% BSA, 0.05% Tween) was added to each well. The plate was incubated at room temperature with shaking (300 rpm) for 2 hours to reach binding equilibrium. Then the plate was washed three times in wash buffer and 100 μl anti-human IgG Fc specific-HRP (Abcam, Ab97225) diluted at 1:2000 in assay buffer was added to each well. The plate was incubated at room temperature for 1 hour under agitation. […] The reaction was stopped after 2 minute-incubation by adding 50 μl of 1M H2SO4 and optical absorbance was read at 450 nm.

CC(C)C[C@@H]1NC(=O)c2ccc(-c3ccc(N4CCNCC4)cc3)c(c2)CNC(=O)[C@@H]2CCCN2C(=O)[C@H](C)NC(=O)[C@H]([C@@H](C)O)NC(=O)[C@H](CC(=O)O)NC1=O [Compound 8] (cyclo(P[X1]LDTA)) gave an IC50 of about 24 nM.
